Type in all cases: in vivo
For data set [1], the system named is barnyard grass (Echinochloa crus-galli Beauv.). The data set can be described thus: Test Example 1: herbicidal effect on paddy field weeds before emergence. Conditions: Dosage 5 kg/ha. In outline: (§1)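 Grading reflects percent control relative to untreated plots, evaluated three weeks post-application. Treatment was a soil application of compound solution, predetermined dose, made to paddy-state pots before weed seeds germinated.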

Data set [2] relates to bulrush (Scirpus juncoides Roxb.). The description is as above. Conditions: Dosage 5 kg/ha. A digest of the protocol:
as §1

The test system of data set [3] is barnyard grass (Echinochloa crus-galli Beauv.). In words: Test Example 2: herbicidal effect on paddy field weeds after emergence. The note with it: Dosage 5 kg/ha; one-leaved stage; 21 days after treatment. A digest of the protocol:
(§2)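 Weeds were sown in 1/10000 are pots of soil flooded to paddy conditions and grown to the one-leaf stage, then the soil was treated with a solution of compound at a predetermined dosage.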

Data set [4] relates to bulrush (Scirpus juncoides Roxb.). Described as above. Conditions: Dosage 5 kg/ha; one-leaved stage; 21 days after treatment. A digest of the protocol: as §2
Data set [5] has as its system monochoria (Monochoria vaginalis Presl). Described as above. The note with it: Dosage 5 kg/ha; one-leaved stage; 21 days after treatment. In outline: as §2
The test system of data set [6] is barnyard grass (Echinochloa crus-galli Beauv.), Ec. The data set can be described thus: Test Example 3: herbicidal effect on upland weeds before emergence. The note with it: dosage 5 kg/ha. In outline:
(§3)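 Pre-emergence spray of liquid prep, compound at set concentration; read at 14 d post-treatment; weed-kill rate calculated, effect graded.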

In data set [7] the test system is bird's eye speedwell (Veronica persica Poir.), Vp. Described as above. The note with it: dosage 5 kg/ha. A digest of the protocol: as §3
In data set [8] the test system is cleavers (Galium aparine L.), Ga. The data set is described as above. The note with it: dosage 5 kg/ha. A digest of the protocol:
as §3

Data set [9] deals with cocklebur (Xanthium strumarium L.), Xs. The description is as above. Conditions: dosage 5 kg/ha. In outline:
as §3

Data set [10] deals with forxtail grass (Alopecurus aequalis var. amurensis Ohwi), Am. The description is as above. The note with it: foxtail grass, dosage 5 kg/ha. In outline:
as §3

Data set [11] has as its system velvetleaf (Abutilon theophtasti L.), At. Described as above. Conditions: dosage 5 kg/ha. A digest of the protocol: as §3
A further data set deals with soybean plant (So). In words: Test Example 3: phytotoxicity to upland crop plants, treatment before emergence. The note with it: dosage 5 kg/ha. A digest of the protocol: (§4)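 Compound formulated as a liquid agent at a prescribed concentration is sprayed before crop emergence. After fourteen days, damage to soybean and wheat is examined and rated by a judgment criterion.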

The test system of another data set is wheat (Wh). Described as above. The note with it: dosage 5 kg/ha. A digest of the protocol: as §4
In data set [12] the test system is barnyard grass (Echinochloa crus-galli Beauv.), Ec. The data set can be described thus: Test Example 4: herbicidal effect on upland weeds after emergence. The note with it: dosage 5 kg/ha; sprayed after emergence; judged 14 days after treatment. A digest of the protocol: (§5)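 Scores of weed-killing rate, with crop phytotoxicity, come from inspection 14 days after plants in soil vats, grown to specified leaf stages, are sprayed with a formulation holding the compound at a prescribed concentration.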

Data set [13] has as its system bird's eye speedwell (Veronica persica Poir.), Vp. The data set is described as above. Conditions: dosage 5 kg/ha; sprayed after emergence; judged 14 days after treatment. In outline:
as §5

In data set [14] the test system is cleavers (Galium aparine L.), Ga. The description is as above. Conditions: dosage 5 kg/ha; sprayed after emergence; judged 14 days after treatment. A digest of the protocol: as §5
In data set [15] the test system is cocklebur (Xanthium strumarium L.), Xs. Described as above. The note with it: dosage 5 kg/ha; sprayed after emergence; judged 14 days after treatment. In outline:
as §5

For data set [16], the system named is forxtail grass (Alopecurus aequalis var. amurensis Ohwi), Am. The description is as above. Conditions: dosage 5 kg/ha; sprayed after emergence; judged 14 days after treatment. In outline: as §5
In data set [17] the test system is velvetleaf (Abutilon theophtasti L.), At. The description is as above. Conditions: dosage 5 kg/ha; sprayed after emergence; judged 14 days after treatment. A digest of the protocol: as §5
Another data set has as its system soybean plant. In words: Test Example 4: phytotoxicity to upland crop plants, treatment after emergence. Conditions: dosage 5 kg/ha, sprayed after emergence, judged 14 days after treatment. A digest of the protocol: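 Weeds and soybean grown in soil-filled vats to set leaf stages, then sprayed post-emergence with the compound at a prescribed concentration. Weed-killing rate and crop phytotoxicity judged 14 days after treatment.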

The test system of another data set is wheat. The description is as above. Conditions: dosage 5 kg/ha, sprayed after emergence, judged 14 days after treatment. A digest of the protocol:
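Weeds, soybean and wheat were sown in soil-filled vats, covered with soil and grown to set leaf stages before a post-emergence spray of an agent containing the compound at a prescribed concentration. Weed-killing rate and crop phytotoxicity were assessed 14 days after treatment.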

Four compounds from US6444617B1, “Fused-heterocycle dicarboxylic acid diamide derivatives or salts thereof, herbicide and usage thereof” (Nihon Nohyaku Co., Ltd., priority 1998, dated 2002) can be followed below.

For the compound `CCc1ccc(Cl)c(CC)c1NC(=O)c1cc2cc(OC)ccc2nc1C(=O)NOC(C)C` [compound 291], the “Pre-emergence treatment Barnyard grass (herbicidal effect)” value (shortened to “Pre-emergence treatment Barnyard grass”) in [1] is given as 5 (Weed-killing rate is 100%.). Also, the “Pre-emergence treatment Bulrush (herbicidal effect)” value (shortened to “Pre-emergence treatment Bulrush”) in data set [2] is given as 4 (Weed-killing rate is 90-99%.). Further, the “Post-emergence treatment Barnyard grass (herbicidal effect)” value (“Post-emergence treatment Barnyard grass” below) in [3] is listed as 5 (Weed-killing rate is 100%.). Moreover, the “Post-emergence treatment Bulrush (herbicidal effect)” value (from here on “Post-emergence treatment Bulrush”) in data set [4] is recorded as 4 (Weed-killing rate is 90-99%.). Further, in data set [5], the “Post-emergence treatment Monochoria (herbicidal effect)” value (“Post-emergence treatment Monochoria” below) was 5 (Weed-killing rate is 100%.). The “Herbicidal effect Ec” value in data set [6] and in [12] was 5 (Weed-killing rate is 100%.) throughout. Besides, the “Herbicidal effect Vp” value in data set [7] and in [13] was 5 (Weed-killing rate is 100%.) throughout. For the same compound, the figures for the “Herbicidal effect Ga” value in data set [8] and in [14] were 5 (Weed-killing rate is 100%.) and 4 (Weed-killing rate is 90-99%.), respectively. The “Herbicidal effect Xs” value in data set [9] and in data set [15] was 4 (Weed-killing rate is 90-99%.) throughout. Besides, the “Herbicidal effect Am” value in data set [10] and in data set [16] was 4 (Weed-killing rate is 90-99%.) in each case. For the same compound, the “Herbicidal effect At” value in [11] and in data set [17] was 5 (Weed-killing rate is 100%.) throughout. Also, the “Phytotoxicity So” value in the data set with soybean plant (So) was 0 (Crop-killing rate is 0-20% (No Phytotoxicity).); in the data set with soybean plant, 2 (Crop-killing rate is 40-69%.). The “Phytotoxicity Wh” value in the data set on wheat (Wh) was 1 (Crop-killing rate is 1-39%.); in the data set with wheat, 2 (Crop-killing rate is 40-69%.).
Turning to `CCCNC(=O)c1nc2ccsc2cc1C(=O)Nc1c(CC)ccc(Cl)c1CC` [compound 871], the “Pre-emergence treatment Barnyard grass” value in [1] is given as 5 (Weed-killing rate is 100%.). In data set [2], the “Pre-emergence treatment Bulrush” value is given as 5 (Weed-killing rate is 100%.). In data set [3], the “Post-emergence treatment Barnyard grass” value is listed as 5 (Weed-killing rate is 100%.). Besides, in data set [4], the “Post-emergence treatment Bulrush” value is listed as 5 (Weed-killing rate is 100%.). The “Post-emergence treatment Monochoria” value in data set [5] was 5 (Weed-killing rate is 100%.). The “Herbicidal effect Ec” value in [6] and in data set [12] was 5 (Weed-killing rate is 100%.) throughout. Also, the “Herbicidal effect Vp” value in data set [7] and in data set [13] was 5 (Weed-killing rate is 100%.) in each case. Further, the “Herbicidal effect Ga” value in data set [8] and in data set [14] was 5 (Weed-killing rate is 100%.) each time. Further, the “Herbicidal effect Xs” value in [9] and in data set [15] was 5 (Weed-killing rate is 100%.) each time. For the same compound, the “Herbicidal effect Am” value in data set [10] and in data set [16] was 5 (Weed-killing rate is 100%.) in each case. The “Herbicidal effect At” value in [11] and in data set [17] was 5 (Weed-killing rate is 100%.) throughout. Besides, the “Phytotoxicity So” value in the data set with soybean plant (So) and in the data set with soybean plant was 4 (Crop-killing rate is 90-99%.) in each case. In addition, the “Phytotoxicity Wh” value with wheat (Wh) and in the data set with wheat was 5 (Crop-killing rate is 100%.) throughout.
In the case of `Cc1c(Cl)cccc1NC(=O)c1cc2c(nc1C(=O)NCC(C)C)OCCC2` [compound 431], the “Pre-emergence treatment Barnyard grass” value in [1] is listed as 5 (Weed-killing rate is 100%.). Further, the “Pre-emergence treatment Bulrush” value in [2] is 5 (Weed-killing rate is 100%.). In data set [3], the “Post-emergence treatment Barnyard grass” value is 5 (Weed-killing rate is 100%.). The “Post-emergence treatment Bulrush” value in data set [4] is 5 (Weed-killing rate is 100%.). Also, in data set [5], the “Post-emergence treatment Monochoria” value is given as 5 (Weed-killing rate is 100%.). The “Herbicidal effect Ec” value in [6] is 5 (Weed-killing rate is 100%.); in data set [12], 4 (Weed-killing rate is 90-99%.). For the same compound, the “Herbicidal effect Vp” value in data set [7] and in [13] was 5 (Weed-killing rate is 100%.) in each case. For the same compound, the “Herbicidal effect Ga” value in data set [8] and in data set [14] was 4 (Weed-killing rate is 90-99%.) in each case. In addition, the “Herbicidal effect Xs” value in data set [9] and in data set [15] was 4 (Weed-killing rate is 90-99%.) in each case. Also, the “Herbicidal effect Am” value in data set [10] and in [16] was 4 (Weed-killing rate is 90-99%.) throughout. The “Herbicidal effect At” value in data set [11] and in data set [17] was 5 (Weed-killing rate is 100%.) each time. Moreover, the “Phytotoxicity So” value in the data set with soybean plant (So) and in the data set on soybean plant was 3 (Crop-killing rate is 70-89%.) throughout. Also, the “Phytotoxicity Wh” value with wheat (Wh) is 3 (Crop-killing rate is 70-89%.); in the data set on wheat it was 4 (Crop-killing rate is 90-99%.).
In the case of `CCc1ccc(Cl)c(CC)c1NC(=O)c1cc2cc3c(cc2nc1C(=O)NC1CCCC1)OCO3` [compound 343], in [1], the “Pre-emergence treatment Barnyard grass” value was 5 (Weed-killing rate is 100%.). Besides, the “Pre-emergence treatment Bulrush” value in data set [2] is given as 3 (Weed-killing rate is 70-89%.). In addition, in [3], the “Post-emergence treatment Barnyard grass” value is given as 3 (Weed-killing rate is 70-89%.). Further, the “Post-emergence treatment Bulrush” value in [4] is 3 (Weed-killing rate is 70-89%.). In addition, in [5], the “Post-emergence treatment Monochoria” value was 5 (Weed-killing rate is 100%.). For the same compound, the “Herbicidal effect Ec” value in data set [6] and in [12] was 4 (Weed-killing rate is 90-99%.) each time. The “Herbicidal effect Vp” value is given as 4 (Weed-killing rate is 90-99%.) in data set [7] and 3 (Weed-killing rate is 70-89%.) in [13]. The figures for the “Herbicidal effect Ga” value in [8] and in [14] were 3 (Weed-killing rate is 70-89%.) and 2 (Weed-killing rate is 40-69%.), respectively. Also, the “Herbicidal effect Xs” value in data set [9] and in [15] was 2 (Weed-killing rate is 40-69%.) throughout. The results for the “Herbicidal effect Am” value in data set [10] and in [16] were 3 (Weed-killing rate is 70-89%.) and 2 (Weed-killing rate is 40-69%.), respectively. Moreover, the “Herbicidal effect At” value in data set [11] and in data set [17] was 3 (Weed-killing rate is 70-89%.) in each case. Further, the “Phytotoxicity So” value with soybean plant (So) and in the data set with soybean plant was 0 (Crop-killing rate is 0-20% (No Phytotoxicity).) each time. Further, the “Phytotoxicity Wh” value in the data set on wheat (Wh) and in the data set with wheat was 0 (Crop-killing rate is 0-20% (No Phytotoxicity).) in each case.
